Values quoted from earlier work in patent US12274791B2, “Multiple unit dosage form having a therapeutic agent in combination with a nutritional supplement” (Bonafide Health, LLC, priority 2007, dated 2025).
Like-named read-outs stand apart in the source and are kept apart here.

| Compound | toxic effects (rats, levels several thousand times the upper limit of the ESADDI for chromium for humans (based on body weight)) | toxic effects (rat, in vivo) |
| --- | --- | --- |
| [Cl][Cr]([Cl])[Cl] [chromium chloride] | without toxic effects | – |
| Chromium picolinate | – | without toxic effects |
